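Tested at 5 concentrations; 48 h exposure; 96-well plates; endpoints linearly interpolated, else capped at highest concentration. Here, GI50 denotes the concentration required for 50% inhibition of growth.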 Calls of active or inactive are those of the source. Rule as the data show it: active = GI50 up to about 1.1 µM and inactive = higher.

We go through 14 compounds from ChEMBL document CHEMBL1201862, “PubChem BioAssay data set” (2004).

Assay in all cases: NCI anticancer screen, dose series, 48 h
For test [1], the system named is SK-OV-3.
Test [2] has as its system KM12.
Test [3] has as its system UO-31.
The test system of test [4] is SN12C.
Test [5] deals with UACC-62.
Test [6] has as its system SW-620.
The test system of test [7] is SK-MEL-2.
Test [8] relates to CAKI-1.
Test [9] deals with M14.
For test [10], the system named is SF-295.
The test system of test [11] is SNB-78.
The test system of test [12] is CCRF-CEM.
The test system of test [13] is SK-MEL-5.
Test [14] relates to RXF 393.
Test [15] relates to DMS-114.
In test [16] the test system is MDA-MB-231.
Test [17] has as its system DU-145.
For test [18], the system named is MCF7.
In test [19] the test system is BT-549.
The test system of test [20] is Hs-578T.

For the compound `N=C(N)Nc1nc2cc(N)ccc2o1`, the GI50 in test [1], in test [2], in test [3], in test [4], in test [5] and in test [6] was > 100 µM (inactive) in each case. For the same compound, the GI50 in test [7], in test [8], in test [9], in [10], in test [11] and in test [12] was > 100 µM (inactive) throughout.

For the compound `CCOC(=O)c1cc(OC(=O)CC)c2c(OC)ccc(OC)c2c1`, the GI50 in test [1] is 21.9 µM (inactive); in test [2], 42.7 µM (inactive); in test [3], 74.1 µM (inactive); in test [4], 78.2 µM (inactive); in [13], > 100 µM (inactive); in test [5], 28.8 µM (inactive). The GI50 in [6] was 66.5 µM (inactive); in test [7], > 100 µM (inactive); in test [14], 30.5 µM (inactive); in test [15], 45 µM (inactive); in test [8] it was 46.2 µM (inactive).

In the case of `CC(C)(C)S(=O)OC12CC3CC(CC(C3)C1)C2` (stereo not drawn), the GI50 in [2] was > 10 µM (inactive); in [3], 92 µM (inactive); in test [4] it was > 100 µM (inactive); in test [13], > 100 µM (inactive); in test [5] it was > 100 µM (inactive); in [6], > 100 µM (inactive). Moreover, the GI50 in [7], in test [14], in [15], in test [9], in test [10] and in test [11] was > 100 µM (inactive) each time. In addition, the GI50 in test [12] was > 100 µM (inactive).

As to `COc1ccc(/C(=N/Nc2ccccc2)C(c2ccc(OC)cc2)C2OC(=O)c3ccccc32)cc1` (stereo not drawn), the GI50 in test [3] is 60.7 µM (inactive); in test [4], > 100 µM (inactive); in test [13], 33.2 µM (inactive); in [5], 52.7 µM (inactive); in test [7] it was > 100 µM (inactive); in test [14], > 10 µM (inactive). The GI50 is 50 µM (inactive) in [15]; 41.9 µM (inactive) in test [8]; > 100 µM (inactive) in test [9]; > 100 µM (inactive) in [10]; 79.8 µM (inactive) in test [12].

On to `CCCCCCCCCCCCCP(=O)(O)NCC(N)=O`, for which the GI50 in test [1] is > 100 µM (inactive); in test [2], 85.1 µM (inactive); in test [3], 27.7 µM (inactive); in test [4], 52.7 µM (inactive); in [13], 61.1 µM (inactive); in [5] it was 52.4 µM (inactive). The GI50 is 99.8 µM (inactive) in [6]; 53.2 µM (inactive) in [7]; > 100 µM (inactive) in [14]; 32.2 µM (inactive) in test [15]; 29.2 µM (inactive) in test [9]; 52 µM (inactive) in test [10]. Besides, the GI50 in test [12] was 52.8 µM (inactive).

Consider `Nc1nc[n+](Cc2ccccc2CCO)c2[nH]cnc12`, for which the GI50 is > 100 µM (inactive) in test [1]; > 100 µM (inactive) in test [2]; 89.3 µM (inactive) in [3]; > 100 µM (inactive) in test [4]; > 100 µM (inactive) in test [13]; > 100 µM (inactive) in test [5]. Further, the GI50 in [6], in test [7], in test [14], in test [15], in [8] and in test [9] was > 100 µM (inactive) throughout. Also, the GI50 in [10] and in test [12] was > 100 µM (inactive) in each case.

`COc1ccc2nc(NC(=O)C(=O)C(C#N)c3ccc(CC#N)cc3)sc2c1` (stereo not drawn): the GI50 in test [1] is > 100 µM (inactive); in test [2] it was > 100 µM (inactive); in test [3] it was 54.6 µM (inactive); in test [4], > 100 µM (inactive); in test [13] it was > 100 µM (inactive); in test [5], 92.9 µM (inactive). For the same compound, the GI50 in [6], in [7], in test [14], in test [8], in [9] and in test [10] was > 100 µM (inactive) throughout. For the same compound, the GI50 in test [11] and in [12] was > 100 µM (inactive) each time.

For `O=C1N(Cl)C(=O)C(c2ccc(Cl)cc2)(c2ccc(Cl)cc2)N1Cl`, the GI50 in test [1] is > 100 µM (inactive); in test [2] it was 48.8 µM (inactive); in [3], 92.5 µM (inactive); in [4], 96.8 µM (inactive); in test [13], > 100 µM (inactive); in test [6], > 100 µM (inactive). Also, the GI50 in test [7] is > 100 µM (inactive); in [14] it was 22.6 µM (inactive); in test [15], 39.9 µM (inactive); in [8] it was > 100 µM (inactive); in test [9], 34.4 µM (inactive); in [10] it was 55.3 µM (inactive). Besides, the GI50 in test [12] was 22.6 µM (inactive).

For the compound `COc1cc(OC)c2c(=O)c(OC)c(-c3ccc4c(c3)OCO4)oc2c1`, the GI50 was 49.9 µM (inactive) in [16]; 22.8 µM (inactive) in test [1]; > 100 µM (inactive) in test [2]; > 100 µM (inactive) in test [3]; 59.7 µM (inactive) in [4]; 48.5 µM (inactive) in [17]. In addition, the GI50 in [13] was 47.3 µM (inactive); in [5], 26 µM (inactive); in test [18], > 100 µM (inactive); in test [19], 71.1 µM (inactive); in test [6] it was > 100 µM (inactive); in [20] it was 35.1 µM (inactive). The GI50 in test [7] was 19.1 µM (inactive); in test [14], 28.1 µM (inactive); in test [8], 21 µM (inactive); in test [9], > 100 µM (inactive); in [10], 22.2 µM (inactive); in [12], > 100 µM (inactive).

Consider `C1CSC(Sc2nc(SC3=NCCS3)nc(SC3=NCCS3)n2)=N1`, for which the GI50 in test [16], in [1], in test [2], in [3], in test [4] and in test [17] was > 100 µM (inactive) each time. Further, the GI50 in [13], in [5], in [18], in test [19], in test [6] and in test [20] was > 100 µM (inactive) each time. Moreover, the GI50 in [7], in test [14], in test [8], in test [9], in test [10] and in test [12] was > 100 µM (inactive) in each case.

With `CN1CCN(C)C1c1cccc(C2N(C)CCN2C)c1`, the GI50 in test [1], in [2], in [3], in [4], in [5] and in test [7] was > 100 µM (inactive) each time. Also, the GI50 in test [14], in test [15], in test [9], in test [10], in test [11] and in test [12] was > 100 µM (inactive) throughout.

For the compound `Cc1cc(S(=O)(=O)Nc2nc(Nc3ccc(Cl)cc3)n[nH]2)c(S)cc1Cl`, the GI50 in [16] was > 100 µM (inactive); in [1], > 100 µM (inactive); in [2], 31.6 µM (inactive); in test [3], 79.1 µM (inactive); in test [4], > 100 µM (inactive); in test [17], > 100 µM (inactive). In addition, the GI50 in [13] is > 100 µM (inactive); in test [5] it was 18.9 µM (inactive); in test [18], > 100 µM (inactive); in test [19], > 100 µM (inactive); in test [6], > 100 µM (inactive); in test [20], 86.5 µM (inactive). In addition, the GI50 was > 100 µM (inactive) in test [7]; > 100 µM (inactive) in test [14]; 36 µM (inactive) in [8]; 59.6 µM (inactive) in [9]; 91.2 µM (inactive) in test [10]; > 100 µM (inactive) in test [12].

On to `CN(C)c1ccc(C=c2c3cc(O)ccc3n3c2cc(-c2ccccc2)[n+]3C)cc1`, for which the GI50 in [16] is 1.04 µM (active); in test [1] it was 3.08 µM (inactive); in test [2], 1.06 µM (active); in test [3] it was 2.93 µM (inactive); in [4], 0.33 µM (active); in test [17] it was 1.92 µM (inactive). For the same compound, the GI50 in test [13] was 0.78 µM (active); in [5] it was 1.36 µM (inactive); in test [18] it was 0.692 µM (active); in test [19], 0.383 µM (active); in [6] it was 1.22 µM (inactive); in [20], 0.333 µM (active). The GI50 in [7] is 1.27 µM (inactive); in test [14], 1.53 µM (inactive); in test [8], 8.63 µM (inactive); in test [9], 1.51 µM (inactive); in test [10] it was 3.78 µM (inactive); in test [12], 0.656 µM (active).

As for `COc1cc([C@@H]2c3[nH]c4ccccc4c3C(Nc3ccc([N+](=O)[O-])cc3)[C@H]3COC(=O)N23)cc(OC)c1O` (stereo partly drawn), the GI50 was 0.352 µM (active) in test [16]; 0.269 µM (active) in test [1]; 0.326 µM (active) in test [2]; 1.27 µM (inactive) in test [3]; 0.187 µM (active) in test [4]; 0.321 µM (active) in test [17]. For the same compound, the GI50 in test [13] was 0.0914 µM (active); in [5] it was 0.195 µM (active); in [18], 0.0361 µM (active); in test [19] it was 0.611 µM (active); in test [6], 0.248 µM (active); in test [20], 0.305 µM (active). For the same compound, the GI50 in [7] is 0.847 µM (active); in [14], 0.382 µM (active); in [8] it was 0.247 µM (active); in [9], 0.321 µM (active); in [10], 0.125 µM (active); in test [12], 0.0395 µM (active).
